Where a SMILES comes first, the peptide text is derived from it. The star is where a group is joined. Cbz = O=C(OCc1ccccc1)*
Legend:
[1] = target: T1, Chymase (Homo sapiens, UniProt P23946); test: Compound was evaluated for inhibitory activity against human heart chymase (HHC)
T1 sequence (P23946 whole entry): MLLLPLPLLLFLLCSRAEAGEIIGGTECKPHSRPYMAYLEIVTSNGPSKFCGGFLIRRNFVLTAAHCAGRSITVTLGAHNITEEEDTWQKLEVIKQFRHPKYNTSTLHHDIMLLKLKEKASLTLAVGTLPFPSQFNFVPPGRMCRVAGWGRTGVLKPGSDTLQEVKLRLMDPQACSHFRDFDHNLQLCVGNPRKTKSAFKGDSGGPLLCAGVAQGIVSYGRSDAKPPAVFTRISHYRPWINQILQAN

[2] = Selectivity ratio of Bovine chymotrypsin (BCT-Ki) to human heart chymase (HHC-Ki)

Row | Ki [1] [nM] | Ratio [2] | SMILES
1 | 14.2 |  | CC(C)(C)OC(=O)NC(CCC(=O)O)C(=O)N1CCC[C@H]1C(=O)NC(Cc1ccccc1)C(=O)C(F)(F)C(=O)Nc1cc(C(=O)O)c2ccccc2c1 (stereo partly specified)
2 | 3 |  | CC[C@H](C)[C@H](NC(=O)OCc1ccccc1)C(=O)N[C@@H](CCC(=O)O)C(=O)N1CCC[C@H]1C(=O)N[C@@H](Cc1ccccc1)C(=O)OC (Cbz-IEPF-OMe)
3 | 3.9 | 332 | CC(C)(C)OC(=O)NC(CCC(=O)O)C(=O)N1CCC[C@H]1C(=O)NC(Cc1ccccc1)C(=O)C(F)(F)C(=O)Nc1cccc(C(=O)O)c1 (stereo partly specified)
4 | 36.6 | 2730 | CC(C)(C)OC(=O)NC(CC(=O)O)C(=O)N1CCC[C@H]1C(=O)NC(Cc1ccccc1)C(=O)C(F)(F)C(=O)Nc1cccc(C(=O)O)c1 (stereo partly specified)
5 | 5.6 |  | CC(C)C(NC(=O)OC(C)(C)C)C(=O)N1CCC[C@H]1C(=O)NC(Cc1ccccc1)C(=O)C(F)(F)C(=O)Nc1cccc(C(=O)O)c1 (stereo partly specified)
6 | 22.8 |  | CCCCNS(=O)(=O)c1cccc(NC(=O)C(F)(F)C(=O)C(Cc2ccccc2)NC(=O)[C@@H]2CCCN2C(=O)C(CCC(=O)O)NC(=O)OC(C)(C)C)c1 (stereo partly specified)
7 | 21.1 | 58 | CC(C)(C)OC(=O)NC(CCC(=O)O)C(=O)N1CCC[C@H]1C(=O)NC(Cc1ccccc1)C(=O)C(F)(F)C(=O)Nc1cccc(C(N)=O)c1 (stereo partly specified)
8 | 6.7 | 590 | CC(C)(C)OC(=O)NC(CCC(=O)O)C(=O)N1CCC[C@H]1C(=O)NC(Cc1ccccc1)C(=O)C(F)(F)C(=O)Nc1cccc(CC(=O)O)c1 (stereo partly specified)
9 | 6 | > 16700 | CC(C)(C)OC(=O)NC(CCC(=O)O)C(=O)N1CCC[C@H]1C(=O)NC(Cc1ccccc1)C(=O)C(F)(F)C(=O)Nc1cc(C(=O)O)cs1 (stereo partly specified)
10 | 27.5 | 38 | CC(C)(C)OC(=O)NC(CCC(=O)O)C(=O)N1CCC[C@H]1C(=O)NC(Cc1ccccc1)C(=O)C(F)(F)C(=O)Nc1cccc(S(N)(=O)=O)c1 (stereo partly specified)

From ChEMBL document CHEMBL1130790, “Peptidyl human heart chymase inhibitors. 2. Discovery of highly selective difluoromethylene ketone derivatives with Glu at P3 site” (Bioorg Med Chem Lett, 1998)
